The values that follow are results of earlier work, collected in patent US20070213332A1, “Prodrugs Of Substituted Amino Heterobicycles Which Modulate The Function Of The Vanilloid-1 Receptor (Vr1)” (priority 2004, published 2007).

In the data set the target is VR1 (Rattus norvegicus, UniProt O35433). To be noted: Walpole et al., J. Med. Chem., 37:1942, 1994.

Molecules are shown by their SMILES.

VR1, sequence (O35433 whole entry): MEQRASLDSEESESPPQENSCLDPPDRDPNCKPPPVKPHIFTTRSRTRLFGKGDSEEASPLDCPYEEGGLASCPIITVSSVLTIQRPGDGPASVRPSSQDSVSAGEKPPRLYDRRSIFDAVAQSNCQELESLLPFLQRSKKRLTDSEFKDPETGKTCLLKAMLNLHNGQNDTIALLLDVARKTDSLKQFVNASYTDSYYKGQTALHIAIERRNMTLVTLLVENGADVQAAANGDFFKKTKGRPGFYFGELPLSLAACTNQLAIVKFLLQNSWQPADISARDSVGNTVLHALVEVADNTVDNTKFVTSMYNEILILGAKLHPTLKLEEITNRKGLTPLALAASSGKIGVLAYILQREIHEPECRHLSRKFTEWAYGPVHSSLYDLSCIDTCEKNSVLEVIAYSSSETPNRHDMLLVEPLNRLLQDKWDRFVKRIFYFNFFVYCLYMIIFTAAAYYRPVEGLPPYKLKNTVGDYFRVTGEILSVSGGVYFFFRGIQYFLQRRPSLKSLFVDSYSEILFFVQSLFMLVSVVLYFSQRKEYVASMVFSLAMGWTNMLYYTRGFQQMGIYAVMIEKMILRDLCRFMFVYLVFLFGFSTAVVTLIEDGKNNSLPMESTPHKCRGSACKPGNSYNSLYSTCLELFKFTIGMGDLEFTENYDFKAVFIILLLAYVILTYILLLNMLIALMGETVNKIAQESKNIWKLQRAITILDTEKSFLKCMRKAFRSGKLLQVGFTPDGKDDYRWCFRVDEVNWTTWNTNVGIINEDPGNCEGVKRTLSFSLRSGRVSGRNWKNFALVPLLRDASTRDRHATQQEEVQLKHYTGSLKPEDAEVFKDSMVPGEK

As for `Oc1cc2c(cc1O)CN(C(=S)NCCc1ccc(Cl)cc1)CCC2` [capsazepine], the IC50 is 420 nM.
